Legend:
[1] = tested on: Colo-205 colon tumors and PE-13 breast tumors; assay: Pimonidazole staining for hypoxic regions in treated tumors; assay type: in vivo, mice
Experimental: Staining for hypoxic regions was performed in Colo-205 colon tumors and PE-13 breast tumors that had been treated either with 59R1 IgG2 antibody or with 1B711 control antibody. The staining was performed as described in Ridgway et al., 2006, Nature 444:1083-1087. Briefly, to measure hypoxia, pimonidazole-hydrochloride (HypoxyProbe, NPI, Burlington, Mass.), which forms long-lived protein adducts at partial pressure of oxygen less than approximately 10 mm Hg, was injected intraperitoneally at 60 mg/kg 1 hr prior to sacrifice. Tumors were then processed for histological analysis, and tumor sections were stained using anti-pimonidazole antibody following manufacturer's protocol (NPI). Photographs were taken using a BX51 microscope (Olympus, Center Valley, Pa.).
AF594-conjugated goat anti-rat F(ab′)2 was used to detect anti-CD31 antibody and FITC-conjugated goat anti-rabbit antibody was used to detect anti-pimonidazole antibody.

[2] = tested on: PN4 pancreatic tumor cells; assay: PN4 pancreatic tumor xenograft growth; assay type: in vivo, NOD/SCID mice
Experimental: In another experiment, anti-Notch2/3 antibodies were tested for an effect on pancreatic tumor growth. NOD/SCID mice were injected with 30,000 PN4 pancreatic tumor cells sub-cu in the right flank, and tumors were allowed to grow until they had reached an average volume of 100 mm^3. Animals were randomized and dosing of anti-Notch2/3 antibody 59R1 or control antibody 1B711 was initiated. Antibodies were dosed at 15 mg/kg given once per week.
PN4 pancreatic tumor cells (50,000 cells per mouse) were injected subcutaneously into the flank region of Nod-Scid mice. Tumors were allowed to grow for 27 days until they had reached an average volume of ˜120 mm^3. Animals were randomized into four treatment groups (n=10/group) and treatments were initiated. One group received a control antibody (1B711) at 10 mg/kg twice per week; one group received gemcitabine at 40 mg/kg once per week plus the control antibody at 10 mg/kg twice per week; one group received 59R1 at 10 mg/kg twice per week, and the fourth group received the combination of 59R1 at 10 mg/kg twice per week and gemcitabine 40 mg/kg once per week. Tumor volumes were measured on the indicated days.

B51 breast tumors = assay: Limiting dilution assay of cancer stem cell frequency, B51 breast tumors; assay type: in vivo, NOD-SCID mice
Description: Limiting dilution assays (LDAs) can be used to assess the effect of a Notch-binding agent on solid tumor cancer stem cells and on the tumorigenicity of a tumor comprising the cancer stem cells. The assays can be sued to determine the frequency of cancer stem cells in tumors from animals treated with the Notch-binding agent or other agent and to compare that frequency to the frequency of cancer stem cells in tumors from control animals.
An LDA was used to assess the effect on the tumorigenicity of the B51 breast tumors that were treated with the combination of control antibody (1B711) plus paclitaxel (Taxol) or treated with the combination of 59R1 and paclitaxel, as described above in Example 7. In addition, the effect of treatment of B51 breast tumors with the control antibody alone or 59R1 alone was also determined by LDA. The doses of antibodies and paclitaxel and the schedule of dosing for the control antibody group and the 59R1 group were the same as described in Example 7, above for the other two treatment groups. After three doses of antibodies and/or paclitaxel, tumors were harvested, processed and dissociated into single cells. The human tumor cells were isolated from the xenograft tumor cells by incubation with biotinylated mouse antibodies (α-mouse CD45-biotin1:200 dilution and rat α-mouse H2 Kd-biotin1:100 dilution, BioLegend, San Diego, Calif.) on ice for 30 min, followed by addition of streptavidin-labeled magnetic beads and removal of the mouse cells with the aid of a magnet. The human cells in the suspension were harvested and counted.
A serial titration of cells (30, 90, 270, and 810 cells) from each of the four treatment groups was injected in a 1:1 (v/v) mixture of FACS buffer and Matrigel into a new set of NOD-SCID mice (n=10/group). Tumors were allowed to grow for 72 days. The percentage of mice with detectable tumors was determined in all groups. The cancer stem cell frequency was then calculated using L-Calc™ software (StemCell Technologies Inc.; downloadable from www.stemcell.com/search/default.asp).

B51 breast tumor cells = assay: B51 breast tumor recurrence after paclitaxel; assay type: in vivo, NOD-SCID mice; details: 59R1 10 mg/kg twice per week plus paclitaxel 15 mg/kg twice per week for 38 days, then antibody only
Experimental: B51 breast tumor cells (50,000 cells per mouse) were injected sub-cutaneously into the mammary fat pad of NOD-SCID mice. Tumors were allowed to grow for 50 days until they had reached an average volume of ˜100 mm^3. Animals were randomized (n=10/group) and treatments were initiated. One group received a control antibody (1B711) at 10 mg/kg twice per week and paclitaxel (Taxol) at 15 mg/kg twice per week and the other group received 59R1 at 10 mg/kg twice per week and paclitaxel at 15 mg/kg twice per week. Tumor volumes were measured on the indicated days. Treatments were carried out for 38 days until the tumor volumes had regressed to ˜50 mm^3, after which the paclitaxel treatments were halted and the antibody treatments continued for the duration of the experiment.

[3] = tested on: stroma from the xenograft models Colo205, B29, B34, B44, PE13, T1, C8, and PN8; assay: TaqMan analysis of stromal gene expression in xenograft models; assay type: in vivo, mice
Description: The expression levels in the stroma from the xenograft models Colo205, B29, B34, B44, PE13, T1 (without estrogen treatment), T1 (with estrogen treatment), C8, and PN8 of selected genes that had been identified in the microarray analysis as being regulated by treatment with 59R1 (heyl, notch3, rgs5, angpt1, and angpt2) were further analyzed by TaqMan® analysis. The results are shown in FIGS. 12A (heyl), 12B (notch3), 12C (rgs5), 12D (angpt1), and 12E (angpt2).

human Notch3 = human Notch3 (Homo sapiens, UniProt Q9UM47); assay: DLL4-Fc induced receptor activation in transfected PC3 cells, human Notch3; assay type: cell-based; design: expressed in transfected cells; host or cells: PC3 tumor cells, transient; details: immobilized DLL4-Fc
Chain of human Notch3 (Q9UM47 40-2321): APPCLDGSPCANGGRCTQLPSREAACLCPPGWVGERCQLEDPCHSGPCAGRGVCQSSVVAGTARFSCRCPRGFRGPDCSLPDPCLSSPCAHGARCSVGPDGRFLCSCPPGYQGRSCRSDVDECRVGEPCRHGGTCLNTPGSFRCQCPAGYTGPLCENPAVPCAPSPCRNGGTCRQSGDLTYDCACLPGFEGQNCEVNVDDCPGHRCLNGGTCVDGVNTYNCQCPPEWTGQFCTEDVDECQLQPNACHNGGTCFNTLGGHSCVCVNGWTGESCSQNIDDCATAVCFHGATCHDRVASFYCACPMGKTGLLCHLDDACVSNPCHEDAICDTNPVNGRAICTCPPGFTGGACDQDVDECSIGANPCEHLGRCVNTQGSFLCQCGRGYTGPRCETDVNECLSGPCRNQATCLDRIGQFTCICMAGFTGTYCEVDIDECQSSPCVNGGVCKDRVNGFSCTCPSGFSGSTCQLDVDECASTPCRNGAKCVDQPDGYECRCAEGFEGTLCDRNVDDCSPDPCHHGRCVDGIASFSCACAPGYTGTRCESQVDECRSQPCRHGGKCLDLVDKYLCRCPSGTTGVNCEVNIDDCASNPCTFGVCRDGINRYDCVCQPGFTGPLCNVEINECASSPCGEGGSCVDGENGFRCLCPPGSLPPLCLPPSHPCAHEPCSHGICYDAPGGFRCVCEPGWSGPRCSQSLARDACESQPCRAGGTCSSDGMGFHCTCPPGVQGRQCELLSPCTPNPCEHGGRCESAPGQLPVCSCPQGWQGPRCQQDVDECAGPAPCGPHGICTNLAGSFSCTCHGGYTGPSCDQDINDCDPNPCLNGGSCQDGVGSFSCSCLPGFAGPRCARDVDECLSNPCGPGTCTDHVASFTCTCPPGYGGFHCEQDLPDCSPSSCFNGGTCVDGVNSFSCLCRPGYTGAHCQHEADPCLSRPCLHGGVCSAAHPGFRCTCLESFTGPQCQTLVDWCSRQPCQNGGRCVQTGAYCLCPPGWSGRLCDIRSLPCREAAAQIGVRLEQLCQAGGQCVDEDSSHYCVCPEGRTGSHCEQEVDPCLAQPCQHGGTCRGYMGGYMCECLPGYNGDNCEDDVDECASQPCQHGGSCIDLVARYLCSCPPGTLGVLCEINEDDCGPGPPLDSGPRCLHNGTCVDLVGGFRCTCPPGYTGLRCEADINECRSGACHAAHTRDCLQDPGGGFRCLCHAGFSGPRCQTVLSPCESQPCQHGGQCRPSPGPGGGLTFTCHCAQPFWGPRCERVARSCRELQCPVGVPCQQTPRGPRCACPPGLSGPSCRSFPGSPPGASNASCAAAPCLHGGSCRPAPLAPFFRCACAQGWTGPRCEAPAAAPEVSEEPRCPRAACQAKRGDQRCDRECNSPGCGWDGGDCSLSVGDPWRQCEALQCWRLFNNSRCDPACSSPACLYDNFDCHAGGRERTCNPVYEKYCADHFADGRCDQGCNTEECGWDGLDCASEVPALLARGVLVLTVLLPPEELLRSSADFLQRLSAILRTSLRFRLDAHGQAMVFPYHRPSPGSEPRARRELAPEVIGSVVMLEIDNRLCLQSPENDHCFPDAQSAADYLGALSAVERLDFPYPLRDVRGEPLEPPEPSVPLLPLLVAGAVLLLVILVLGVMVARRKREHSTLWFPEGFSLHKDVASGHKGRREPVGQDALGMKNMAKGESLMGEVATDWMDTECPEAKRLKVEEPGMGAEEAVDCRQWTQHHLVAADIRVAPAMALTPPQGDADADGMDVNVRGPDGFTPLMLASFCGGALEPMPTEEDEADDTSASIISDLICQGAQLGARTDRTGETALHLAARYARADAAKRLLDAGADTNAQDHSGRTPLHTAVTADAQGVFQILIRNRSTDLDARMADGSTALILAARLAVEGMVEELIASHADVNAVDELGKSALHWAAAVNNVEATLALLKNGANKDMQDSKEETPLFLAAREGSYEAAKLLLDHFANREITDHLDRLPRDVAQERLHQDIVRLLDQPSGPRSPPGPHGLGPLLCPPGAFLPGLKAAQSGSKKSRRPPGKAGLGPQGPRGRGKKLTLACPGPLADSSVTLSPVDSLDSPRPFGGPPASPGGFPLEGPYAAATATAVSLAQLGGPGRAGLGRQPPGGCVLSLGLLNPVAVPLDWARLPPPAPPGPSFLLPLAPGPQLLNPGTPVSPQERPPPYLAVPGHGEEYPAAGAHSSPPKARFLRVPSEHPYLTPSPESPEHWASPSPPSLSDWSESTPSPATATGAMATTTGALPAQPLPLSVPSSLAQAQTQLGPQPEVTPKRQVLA
Experimental: 59R5 was determined to have similar activity in blocking Notch2 and Notch3 signaling as 59R1. Receptor activation was determined in luciferase-based assays. PC3 tumor cells were transiently transfected with a human or mouse Notch receptor (human Notch2, murine Notch2, human Notch3, or murine Notch3) and […] inducible reporter construct. Transfected cells were incubated with different concentrations of 59R1 or 59R5 antibody in the presence of passively immobilized DLL4-Fc protein. Notch receptor activation was determined by measuring luciferase activity.

[4] = B51, combination of 59R1 and paclitaxel
[5] = each of the various tumor types, relative to control

Substance	hypoxic regions (anti-pimonidazole antibody) versus 1B711 treated tumors ([1]; Colo-205 and PE13 tumors)	number of CD31-positive cells ([1]; treated tumors versus 1B711)	PN4 tumor growth, combination of 59R1 and gemcitabine ([2]; 59R1 10 mg/kg twice per week and gemcitabine 40 mg/kg once per week)	PN4 tumor growth compared to control ([2]; established tumors, 15 mg/kg once per week)	reduction of cancer stem cell frequency relative to the control (B51 breast tumors; B51, 59R1 alone)	reduction of cancer stem cell frequency relative to treatment with 59R1 alone (B51 breast tumors; [4])	reduction of cancer stem cell frequency relative to treatment with paclitaxel alone (B51 breast tumors; [4])	reduction of cancer stem cell frequency relative to treatment with the control antibody (B51 breast tumors; [4])	B51 tumor recurrence after paclitaxel treatment (B51 breast tumor cells)	effect on down-regulation of angiopoietin-1 and angiopoietin-2 in the stroma of the T1 tumor ([3]; absence of estrogen treatment (T1 ne))	angiopoietin-1 (angpt1) expression in stroma (TaqMan) ([3]; breast cancer models)	angiopoietin-2 (angpt2) expression in stroma (TaqMan) ([3]; breast cancer models)	notch3 expression in stroma (TaqMan) [3, 5]	rgs5 expression in stroma (TaqMan) [3, 5]	angpt1 and angpt2 expression in the stroma of the T1 model ([3]; estrogen treatment used (T1 e))	heyl expression in stroma (TaqMan) ([3]; xenograft models, relative to control)	ligand-induced activation of human Notch3 receptor signaling (human Notch3)
59R1: human IgG2 antibody binding Notch2 and Notch3; heavy and light chain SEQ ID NO:16 and 18; ATCC PTA-9547	significantly more pronounced	remained unchanged	inhibited	significantly reduced	more than two-fold	more than two-fold	about twelve-fold	about 4.5 fold	recur more rapidly in the control group compared with the group treated with 59R1	abrogated	down-regulated in the stroma of a number of the breast cancer models	down-regulated in the stroma of a number of the breast cancer models	down-regulated	down-regulated	down-regulated	downregulated in the stroma of each of the xenograft models except B34	
59R5: human antibody that specifically binds human Notch 2 and human Notch 3; heavy and light chain SEQ ID NO:49 and 18; ATCC PTA-10170																	blocked

Source: patent US8226943B2, “Antibodies to notch receptors” (OncoMed Pharmaceuticals, Inc., priority 2008, dated 2012)
